Measured values taken from patent publication US9187523B2 (priority 2006, dated 2015).
Where a SMILES comes first, the peptide text is derived from it. The star is where a group is joined. Dabcyl = CN(C)c1ccc(N=Nc2ccc(C(=O)*)cc2)cc1; EDANS = O=S(=O)(O)c1cccc2c(NCCN*)cccc12

System: Yersinia pestis cells lacking plague plasminogen activator gene
Type: cell-based

CC[C@H](C)[C@H](NC(=O)[C@H](CCCNC(=N)N)NC(=O)[C@H](CCCNC(=N)N)NC(=O)c1ccc(N=Nc2ccc(N(C)C)cc2)cc1)C(=O)N[C@@H](CC(N)=O)C(=O)N[C@@H](CCCNC(=N)N)C(=O)N[C@@H](CCC(=O)NCCNc1cccc2c(S(=O)(=O)O)cccc12)C(N)=O [DABCYL-Arg-Arg-Ile-Asn-Arg-Glu-(EDANS)-NH2] (Dabcyl-RRINRE(EDANS)-NH2)
fluorescence with Pla-negative mutant: low background fluorescence
